Data from patent US10927136B2, “Phosphorus prodrugs of pyrazolo-substituted pyrimidine sGC stimulators” (Cyclerion Therapeutics, Inc., priority 2016, dated 2021).

Columns and labels:
[1] = Ex-vivo rat intestinal fluid stability assay; assay type: in vitro ADME; set-up: half-life: dose or concentration left out as unconfirmed; settings: 37° C.; for prodrug converted into its parent drug: after 30 minutes of incubation; for half-life: rat intestinal (jejunum) fluid, read-out: disappearance half-life (T1/2)
Method: Phosphate prodrugs disclosed herein were designed to be cleaved by alkaline phosphatase(s) that are present on the apical brush-border membranes of the intestine, after which the more hydrophobic parent compound is readily absorbed. Phosphatases are also present in the liver and in the systemic circulation. In order to test the speed of cleavage of the prodrug into the parent drug, […] solutions of each of the test compounds were incubated in rat intestinal (jejunum) fluid. Samples were taken at times=0, 5, 15, 30 and 60 min and the mixtures were quenched by the addition of acetonitrile containing an internal standard. Samples were analyzed by full scan LC/MS. The following protocol was used:
10 mM DMSO stock solutions were thawed or prepared for the positive control (Enalapril) and each test article. Internal standard (IS) crash solution in acetonitrile (ACN) with 20 ng/ml of Compound Z, depicted below, was prepared. Stock (250 uM) was prepared from 10 mM in 50/50 acetonitrile/H2O. Rat intestinal fluid vials were thawed in a water bath at rt.
In a 96-well, 1 ml plate, 48 uL of rat intestinal fluid was aliquoted in triplicate for each time point. The t0 (“0 min”) time point was prepared separately by adding 450 ul of IS crash solution to 48 ul of intestinal fluid, then adding 2 uL of test compound. 2 ul of the 250 uM substock was added to initiate the reaction at 5 min, 15 min, 30 min, and 60 min. The plate prepared in the above steps was covered with a plastic or foil seal and was set in the 37° C. incubator, lightly shaking. For each time point, 450 ul of IS crash solution was added to quench the reaction. The plates were centrifuged at 4000 RPM for 10 minutes at 4° C. 50 ul of supernatant was transferred into 50 ul of H2O and analyzed using LC/MS.
The disappearance of the prodrug and the conversion to the parent were monitored over time.

[2] = cited from earlier work
[3] = known; cited from earlier work
[4] = human microsomes, after 15 min; cited from earlier work

Row | prodrug converted into its parent drug [1] | prodrug remaining uncleaved ([1]; after 60 minutes of incubation) | half-life [1] | prodrug converted into its parent drug / cleaved ([1]; after 60 minutes of incubation) | SMILES | human half-life (from published data) [2] | cleavage to the parent drug in vivo [3] | quantifiable fostamatinib in subjects ([2]; human clinical trials, oral dosing, after the 2-hour time point) | hydrolysis of prodrug [4]
1 | about 25% | less than 10% |  |  | O=P(O)(O)OC1(CNc2nc(-c3cc(-c4ccon4)n(Cc4ccccc4F)n3)ncc2F)CCOCC1 [Compound I-3] |  |  |  | 
2 |  | About 80% | 211 min |  | O=P(O)(O)OC(Cn1cncn1)(Cn1cncn1)c1ccc(F)cc1F [fosfluconazole] | 90 to 150 min | known to cleave slowly to the parent drug in vivo |  | 
3 | More than 80% | no prodrug could be detected | 5 min |  | O=C1NC(c2ccccc2)(c2ccccc2)C(=O)N1COP(=O)(O)O [fosphenytoin] | 8 to 15 min | known to cleave to the parent drug quickly in vivo |  | 
4 | About 50% |  | 34 min | About 80% | COc1cc(Nc2ncc(F)c(Nc3ccc4c(n3)N(COP(=O)(O)O)C(=O)C(C)(C)O4)n2)cc(OC)c1OC [fostamatinib] |  | known to cleave to the parent drug quickly in vivo | no quantifiable fostamatinib was observed | fully hydrolized
